From patent US11384066B1, “Heterocyclic compounds useful as aurora a selective inhibitors” (Jacobio Pharmaceuticals Co., Ltd., priority 2020, dated 2022)

Columns and labels:
PK in rat = format: in vivo; conditions: SD male rats
Experimental: The compounds were dissolved into 10% DMSO, 30% PEG400, and 60% saline to obtain a solution. SD male rats were given the compound orally and intravenously. Then plasma samples were collected at 0 hour (pre-dose), 0.25, 0.5, 1, 2, 4, 7, 24 hours post-dose. Plasma drug concentration was detected by LC-MS/MS. Pharmacokinetic parameters were calculated using WinNonlin's software with non-compartmental model.

NCI-H446 cells = assay: Cell proliferation assay (CellTiter-Glo), NCI-H446; format: cell-based; conditions: Homo sapiens, NCI-H446, 120 h, 5 days
Experimental: (§1) Example B: Cell Proliferation Assay
(§2) NCI-H2171 and NCI-H446 cell proliferation analysis were conducted by CellTiter-Glo (Promega, Cat #G1111). The cells will be harvested respectively during the logarithmic growth period and counted with hemocytometer. […] Adjust NCI-H2171 and NCI-H446 cells concentrations to 1.0×10^5 cells/mL with complete medium (RPMI-1640 medium supplemented with 10% (v/v) fetal bovine serum). 100 μL/cell suspensions were added to 96-well plates, and the final cell densities were 1.0×10^4 cells/well. The plate will be cultured overnight in 5% CO2 and 95% humidity at 37° C. The next day, the test compound was dissolved in DMSO as stock solution. Then the different concentrations of compound were added into 96-well plates. The plates will be cultured for 5 days, then measured by means of CellTiter-Glo assay. 50 μL/cell CellTiter-Glo reagent was added into 96-well plates. Shock incubation for 5 min and then stand incubation for 10 min at room temperature. Record the Luminosity values using an microplate spectrophotometer (Spark, Tecan). Fit the data using GraphPad 8.0 and obtain IC50 values.
(§3) Formula: Survival (%)=(Lumtest−Lummedia control)/(Lumcell control−Lummedia control)×100%

Aurora B = Aurora B (Homo sapiens (Human), UniProt Q96GD4); assay: Aurora B kinase assay (mobility shift assay); format: biochemical; conditions: ratio of Aurora B IC50 to Aurora A IC50
Experimental: (§4) Example A: Evaluation of Aurora a and Aurora B Inhibitory Effect—Kinase Assay
(§5) The inhibitory activities of a test compound against Aurora A and Aurora B were measured according to the following method.
(§6) The IC50 value of Aurora A and Aurora B kinase was performed by Sundia MediTech Co. Ltd. using Mobility shift assay.
(§7) • (1) Prepare a 1× kinase buffer [50 mM 4-(2-hydroxyethyl)-1-piperazineethanesulfonic acid (HEPES), PH 7.5, 0.01% Brij-35, 10 mM MgCl2, 2 mM dithiothreitol (DTT)]. • (2) Prepare compound:
(§8) The testing compound was dissolved with DMSO. The testing compound was diluted up to 100× final concentration in a 384-well plate. Transfer 250 nL of the compound dilution to a 384-well assay plate using Echo 550. 100% DMSO of 250 nL was added to the negative control well and the positive control well. • (3) Prepare a 2.5× enzyme solution using the above 1× kinase buffer. • (4) Add 10 μL of the 2.5× enzyme solution to the compound well and the positive control well of the 384-well assay plate. Add 10 μL of the 1× kinase buffer to the negative control well. • (5) The 384-well plate was centrifuged at 1000 rpm for 30 seconds and incubated at room temperature for 10 min. • (6) A mixture of ATP and Kinase substrate 21 with a final concentration of 25/15× was prepared by the 1× kinase buffer. • (7) Add 15 μL of the mixture of 25/15×ATP and kinase substrate solution 21 to start reaction. • (8) The 384-well plate was centrifuged at 1000 rpm for 30 seconds and incubated at room temperature. • (9) 30 μL of the stop and detection buffer was added to stop the kinase reaction and centrifuged at 1000 rpm for 30 seconds. • (10) Collect data on Caliper EZ ReaderII. Data Analysis:
(§9) Conversion %_sample is conversion rate data of samples. Conversion %_min is mean value of negative control (conversion rate data without enzyme activation). Conversion %_max is mean positive control (conversion rate data without compound).
(§10) The log of concentration is on the X axis, and the percentage inhibition is on the Y axis. Fit the Quantitative effect curves with log (inhibitor) vs. response—Variable slope in GraphPad Prism5 obtain IC50 values. Equation used is Y=Bottom+(Top−Bottom)/(1+10^((Log IC50−X)*HillSlope)).

Aurora A = Aurora A (Homo sapiens (Human), UniProt O14965); assay: Aurora A kinase assay (mobility shift assay); format: biochemical
Experimental: as §4, §5, §6, §7, §8, §9, §10

NCI-H2171 cells = assay: Cell proliferation assay (CellTiter-Glo), NCI-H2171; format: cell-based; conditions: Homo sapiens, NCI-H2171, 120 h, 5 days
Experimental: as §1, §2, §3

Chain of Aurora B (Q96GD4 whole entry): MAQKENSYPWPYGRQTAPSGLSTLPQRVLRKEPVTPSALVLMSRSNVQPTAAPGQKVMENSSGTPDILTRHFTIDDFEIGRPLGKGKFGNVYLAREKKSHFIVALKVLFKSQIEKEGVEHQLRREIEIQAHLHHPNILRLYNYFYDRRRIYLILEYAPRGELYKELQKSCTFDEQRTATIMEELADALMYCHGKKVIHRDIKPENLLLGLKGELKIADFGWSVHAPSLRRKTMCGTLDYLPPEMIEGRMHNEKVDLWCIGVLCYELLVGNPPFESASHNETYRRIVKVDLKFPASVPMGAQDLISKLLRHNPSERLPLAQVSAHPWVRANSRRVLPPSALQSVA
Chain of Aurora A (O14965 whole entry): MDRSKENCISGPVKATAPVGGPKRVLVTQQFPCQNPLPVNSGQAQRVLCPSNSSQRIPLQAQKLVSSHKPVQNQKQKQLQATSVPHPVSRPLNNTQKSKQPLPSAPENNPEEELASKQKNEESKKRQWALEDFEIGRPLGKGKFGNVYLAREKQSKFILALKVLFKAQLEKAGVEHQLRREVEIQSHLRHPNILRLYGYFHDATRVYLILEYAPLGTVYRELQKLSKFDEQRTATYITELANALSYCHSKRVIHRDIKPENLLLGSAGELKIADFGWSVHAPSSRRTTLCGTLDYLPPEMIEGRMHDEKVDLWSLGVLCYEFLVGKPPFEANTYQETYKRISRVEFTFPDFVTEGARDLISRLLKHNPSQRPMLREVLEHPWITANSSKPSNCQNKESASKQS

Structure (SMILES) | IC50 (NCI-H446 cells) | IC50 Ratio Aur B/Aur A (Aurora B) | IC50 (Aurora A) | IC50 (NCI-H2171 cells) | also measured
Cc1cc(Nc2ccc(F)c(C[C@@]3(C(=O)O)CCN(Cc4cccc(Cl)c4F)[C@H](C)C3)n2)n[nH]1 [LY3295668, reference compound] |  |  |  |  | CL (PK in rat; IV: 3 mg/kg): 1.52 mL/min/kg; Vss (PK in rat; IV: 3 mg/kg): 0.29 L/kg; AUClast (PK in rat; PO: 10 mg/kg): 91211 ng·h/mL; Cmax (PK in rat; PO: 10 mg/kg): 15033 ng/mL; t1/2 (PK in rat; PO: 10 mg/kg): 3.37 h; F% (PK in rat; PO: 10 mg/kg vs IV: 3 mg/kg): 81%
Cc1cc(Nc2cc(F)cc(C[C@@]3(C(=O)O)CCN(Cc4cccc(Cl)c4F)[C@H](C)C3)n2)n[nH]1 [Example 30, (2R,4R)-1-(3-chloro-2-fluorobenzyl)-4-((4-fluoro-6-((5-methyl-1H-pyrazol-3-yl)amino)pyridin-2-yl)methyl)-2-methylpiperidine-4-carboxylic acid] | 128 nM |  |  | 62 nM | 
CC[C@@H]1C[C@](Cc2nc(Nc3cc(C)[nH]n3)ccc2F)(C(=O)O)CCN1Cc1cccc(Cl)c1F [Example 8, (2R,4R)-1-(3-chloro-2-fluorobenzyl)-2-ethyl-4-((3-fluoro-6-((5-methyl-1H-pyrazol-3-yl)amino)pyridin-2-yl)methyl) piperidine-4-carboxylic acid] | 119 nM | 1288 | 1.2 nM | 75 nM | 
Cc1cc(Nc2ccc(F)c(C[C@@]3(C(=O)O)CCN(S(=O)(=O)c4ccccc4C(F)(F)F)[C@H](C)C3)n2)n[nH]1 [Example 39, (2R,4R)-4-((3-fluoro-6-((5-methyl-1H-pyrazol-3-yl)amino)pyridin-2-yl)methyl)-2-methyl-1-((2-(trifluoromethyl)phenyl)sulfonyl)piperidine-4-carboxylic acid] |  | 3019 | 0.57 nM |  | 
Cc1cc(Nc2ccc(F)c(C[C@@]3(C(=O)O)CCN(Cc4c(Cl)cccc4Cl)[C@H](C)C3)n2)n[nH]1 [Example 17, (2R,4R)-1-(2,6-dichlorobenzyl)-4-((3-fluoro-6-((5-methyl-1H-pyrazol-3-yl)amino)pyridin-2-yl)methyl)-2-methylpiperidine-4-carboxylic acid] |  | 2974 | 3.2 nM |  | 
Cc1cc(Nc2ccc(F)c(C[C@@]3(C(=O)O)CCN(Cc4cccc(C)c4F)[C@H](C)C3)n2)n[nH]1 [Example 16, (2R,4R)-1-(2-fluoro-3-methylbenzyl)-4-((3-fluoro-6-((5-methyl-1H-pyrazol-3-yl)amino)pyridin-2-yl)methyl)-2-methylpiperidine-4-carboxylic acid] |  | 1812 | 1.7 nM |  | 
Cc1cc(Nc2nc(C[C@@]3(C(=O)O)CCN(Cc4cccc(Cl)c4F)[C@H](C)C3)c(F)cc2C)[nH]n1 [Example 35, (2R,4R)-1-(3-chloro-2-fluorobenzyl)-4-((3-fluoro-5-methyl-6-((3-methyl-1H-pyrazol-5-yl)amino)pyridin-2-yl)methyl)-2-methylpiperidine-4-carboxylic acid] |  | 2403 | 1.9 nM |  | 
Cc1cc(Nc2nc(C[C@@]3(C(=O)O)CCN(Cc4cccc(Cl)c4F)[C@H](C)C3)cnc2C)n[nH]1 [Example 33, (2R,4R)-1-(3-chloro-2-fluorobenzyl)-2-methyl-4-((5-methyl-6-((5-methyl-1H-pyrazol-3-yl)amino)pyrazin-2-yl)methyl) piperidine-4-carboxylic acid] |  | 3757 | 1.5 nM |  | 
Cc1cc(Nc2ccc(Cl)c(C[C@@]3(C(=O)O)CCN(Cc4cccc(Cl)c4F)[C@H](C)C3)n2)n[nH]1 [Example 11, (2R,4R)-1-(3-chloro-2-fluorobenzyl)-4-((3-chloro-6-((5-methyl-1H-pyrazol-3-yl)amino)pyridin-2-yl)methyl)-2-methylpiperidine-4-carboxylic acid] |  | 2264 | 0.64 nM |  | 
Cc1cc(Nc2cccc(C[C@@]3(C(=O)O)CCN(Cc4cccc(Cl)c4F)[C@H](C)C3)n2)n[nH]1 [Example 29, (2R,4R)-1-(3-chloro-2-fluorobenzyl)-2-methyl-4-((6-((5-methyl-1H-pyrazol-3-yl)amino)pyridin-2-yl)methyl)piperidine-4-carboxylic acid] |  | 586 | 1.4 nM |  | 

Further lines, with some results ahead:

IC50 (NCI-H446 cells) | IC50 Ratio Aur B/Aur A (Aurora B) | IC50 (Aurora A) | IC50 (NCI-H2171 cells) | Structure (SMILES) | also measured
63 nM | 779 | 0.76 nM | 27 nM | Cc1cc(Nc2nc(C[C@@]3(C(=O)O)CCN(Cc4cccc(Cl)c4F)[C@H](C)C3)cc(Cl)c2F)n[nH]1 [Example 73, (2R,4R)-1-(3-chloro-2-fluorobenzyl)-4-((4-chloro-5-fluoro-6-((5-methyl-1H-pyrazol-3-yl)amino)pyridin-2-yl)methyl)-2-methylpiperidine-4-carboxylic acid] | 
 | 716 | 0.57 nM |  | CCc1cc(Nc2cc(C)[nH]n2)nc(CC2(C(=O)O)CCN(Cc3cccc(Cl)c3F)CC2)c1F [Example 66, 1-(3-chloro-2-fluorobenzyl)-4-((4-ethyl-3-fluoro-6-((5-methyl-1H-pyrazol-3-yl)amino)-pyridin-2-yl)methyl)piperidine-4-carboxylic acid] | 
154 nM | 562 | 0.55 nM | 57 nM | Cc1cc(Nc2cc(C)c(F)c(C[C@@]3(C(=O)O)CCN(Cc4cccc(Cl)c4Cl)[C@H](C)C3)n2)n[nH]1 [Example 53, (2R,4R)-1-(2,3-dichloro-benzyl)-4-((3-fluoro-4-methyl-6-((5-methyl-1H-pyrazol-3-yl)-amino)pyridin-2-yl)methyl)-2-methylpiperidine-4-carboxylic acid] | 
 | 2036 | 0.61 nM |  | Cc1cc(Nc2nc(CC3(C(=O)O)CCN(Cc4cccc(Cl)c4F)CC3)cc(C)c2F)n[nH]1 [Example 79, 1-(3-chloro-2-fluorobenzyl)-4-((5-fluoro-4-methyl-6-((5-methyl-1H-pyrazol-3-yl)amino)-pyridin-2-yl)methyl)piper-idine-4-carboxylic acid] | 
87 nM |  |  | 41 nM | CC(=O)c1cc(Nc2cc(C)[nH]n2)nc(CC2(C(=O)O)CCN(Cc3cccc(Cl)c3F)CC2)c1F [Example 69, 4-((4-acetyl-3-fluoro-6-((5-methyl-1H-pyrazol-3-yl)-amino)pyridin-2-yl)methyl)-1-(3-chloro-2-fluorobenzyl)-piperidine-4-carboxylic acid] | 
 | 1479 | 0.54 nM |  | Cc1cc(Nc2nc(C[C@@]3(C(=O)O)CCN(Cc4cccc(Cl)c4F)[C@H](C)C3)cc(C#N)c2F)n[nH]1 [Example 90, (2R,4R)-1-(3-chloro-2-fluorobenzyl)-4-((4-cyano-5-fluoro-6-((5-methyl-1H-pyrazol-3-yl)amino)pyridin-2-yl)methyl)-2-methylpiperidine-4-carboxylic acid] | 
